Legend:
[1] = system: NCI-H460; assay: Potency index, ratio of WZ4002 IC50 to compound IC50 for human NCI-H460 cells; assay type: functional
[2] = system: NCI-H460; assay: Potency index, ratio of gefitinib IC50 to compound IC50 for human NCI-H460 cells; assay type: functional

| Structure (SMILES) | Ratio IC50 [1] | Ratio IC50 [2] |
| --- | --- | --- |
| COc1cc(N2CCN(C)CC2)ccc1Nc1ncc(Cl)c(Oc2ccccc2NC(=O)CO)n1 | 6 - 10 | 6 - 10 |
| COc1cc(N2CCN(C)CC2)ccc1Nc1ncc(Cl)c(Oc2ccccc2NC(=O)CCOCc2ccccc2)n1 | 6 - 10 | 6 - 10 |
| COc1cc(N2CCN(C)CC2)ccc1Nc1ncc(Cl)c(Oc2ccccc2NC(=O)COCc2ccccc2)n1 | 6 - 10 | 6 - 10 |
| COc1cc(N2CCN(C)CC2)ccc1Nc1ncc(Cl)c(Oc2ccccc2NC(=O)CCO)n1 | 6 - 10 | 6 - 10 |

Reference: ChEMBL document CHEMBL4177590, “Design, synthesis and biological evaluation of WZ4002 analogues as EGFR inhibitors” (Bioorg Med Chem Lett, 2017)
